# Data from patent US4616015A, “Triazine derivatives, and pharmaceutical compositions comprising the same” (Fujisawa Pharmaceutical Co., Ltd., priority 1983, dated 1986).
# Where a name gives a salt, the structure may show the parent alone.
# Tests used:
# [1] = system: blood pressure; test: Antihypertensive activity (test A): maximum decrease of blood pressure in uninephrectomized DOCA/saline hypertensive rats, oral; assay type: in vivo, male Wister rats
# Procedure: Five-week old male Wister rats were uninephrectomized under anesthesia. Deoxycorticosterone acetate (DOCA) (30 mg/kg), suspended in peanut oil, was injected subcutaneously twice a week and 1% saline was substituted for the drinking water. Animals with mean blood pressure 150-200 mmHg were used for experiment between 5 and 7 weeks after surgery.
# The test compounds were administered orally. Blood pressure was measured at the femoral artery by means of a pressure transducer and recorded as electrically integrated values of mean arterial pressure.
# [2] = system: platelet aggregation; test: Inhibition of platelet aggregation induced by ADP, platelet rich plasma (test B); assay type: cell-based; settings: Oryctolagus cuniculus, inducer ADP (2.5 μM), rabbit PRP, 37° C., read-out: ID50, platelet aggregation, ADP
# Procedure: (§1) Platelet rich plasma (PRP) which contains 6.5-7.5×10^8 platelet/ml was prepared from rabbit blood. To the 200 μl of PRP, 5 μl of calcium chloride (1 mM) and 50 μl of pH 7.4 Tris-acetate solution (5 mM) containing 120 mM NaCl and test compound were added successively, and then stirred for 2 min. at 37° C. To the solution, 5 μl of adenosine diphosphate (ADP) (2.5 μM) or collagen (2.5 μg/ml) was added as an aggregation inducer. Aggregation was measured by using an aggregometer (NKK HEMA TRACER 1).
# [3] = system: platelet aggregation; test: Inhibition of platelet aggregation induced by collagen, platelet rich plasma (test B); assay type: cell-based; settings: Oryctolagus cuniculus, inducer collagen (2.5 μg/ml), rabbit PRP, 37° C., read-out: ID50, platelet aggregation, collagen
# Procedure: as §1
# [4] = system: ethanol ulcer; test: Ethanol ulcer, area of ulcers (test C); assay type: in vivo, male Sprague-Dowley rats; settings: dose c: 32 mg/kg, oral, 30 minutes before ethanol
# Procedure: Five male Sprague-Dowley rats, aged 7 weeks and weighing about 200 g, were used per group for the study on ethanol ulcer after the fast for 24 hours.
# Test compound was suspended in 0.1% methylcellulose aqueous solution, and the suspension (5 ml/kg) was orally given to each rat.
# The control group was given a vehicle, i.e. 0.1% methylcellulose aqueous solution (5 ml/kg), alone in the same way.
# Absolute ethanol (5 ml/kg) was orally administered 30 minutes after dosing with test compound, and one hour later, the rats were sacrificed and their stomachs were removed. The area of ulcers of each rat was measured. The mean area (mm^2) in the medicated group was compared with that in the control group.
SMILES,IC50 [2] [nM],IC50 [3] [nM],Effect Max (mean ratio of maximum decrease of blood pressure) ([1]; dose a: 0.1 mg/kg) [%],Effect Max (mean ratio of maximum decrease of blood pressure) ([1]; dose b: 1 mg/kg) [%],Effect Max (ulcer area vs control) [4] [%]
"CC(Cl)C(=O)Nc1ccc(C2=NNC(=O)NC2C)cc1 (stereo not drawn) [5-(7), 6-[4-(2-Chloropropionylamino)phenyl]-5-methyl-4,5-dihydro-1,2,4-triazin-3(2H)-one]",–,–,18.7,51.8,–
"CC1NC(=O)NN=C1c1ccc(NC(=O)CCC(=O)O)cc1 (stereo not drawn) [13-(4), Sodium 3-[4-(3-methyl-4,5-dihydro-3(2H)-oxo-1,2,4-triazin-6-yl)phenylcarbamoyl]propionate]",–,–,–,–,67.0
"CC1NC(=O)NN=C1c1ccc(NCCCN)cc1 (stereo not drawn) [21-(1), 6-[4-(3-aminopropylamino)phenyl]-5-methyl-4,5-dihyro-1,2,4-triazin-3(2H)-one]",190,47,–,–,–
"CC1NC(=O)NN=C1c1ccc(NC(=O)CN)cc1 (stereo not drawn) [Example 29, 6-(4-glycyclaminophenyl)-5-methyl-4,5-dihydro-1,2,4-triazin-3(2H)-one hydrochloride]",–,–,11.1,47.5,–

# Second part, led by results:
IC50 [2] [nM],IC50 [3] [nM],SMILES,Effect Max (mean ratio of maximum decrease of blood pressure) ([1]; dose a: 0.1 mg/kg) [%],Effect Max (mean ratio of maximum decrease of blood pressure) ([1]; dose b: 1 mg/kg) [%],Effect Max (ulcer area vs control) [4] [%]
110,5.3,"CC(=O)C(=O)Nc1ccc(C2=NNC(=O)NC2C)cc1 (stereo not drawn) [5-(19), 6-(4-Pyruvoylaminophenyl)-5-methyl-4,5-dihydro-1,2,4-triazin-3(2H)-one]",–,–,–
320,150,"CC1NC(=O)NN=C1c1ccc(NC(=O)[C@@H](C)O)cc1 (stereo partly drawn) [13-(3), 6-(4-D-Lactoylaminophenyl)-5-methyl-4,5-dihydro-1,2,4-triazin-3(2H)-one]",22,50,–
68,16,"C=CC(=O)Nc1ccc(C2=NNC(=O)NC2C)cc1 (stereo not drawn) [22-(1), 6-(4-Acryloylaminophenyl)-5-methyl-4,5-dihydro-1,2,4-triazin-3(2H)-one]",–,–,–
